Test results from BindingDB's records for doi:10.1021/acsmedchemlett.6b00489 (Peking University, 2017).

test: Inhibition of SDHB in human U2OS cells over-expressing Bim assessed as inhibition of apoptosis preincubated for 1 hr followed by doxycyclin addition to induce Bim protein expression measured after 24 hrs by Cell Titer-Glo assay

Row | Compound | EC50 [nM]
1 | COc1ccc(Cn2cc(-c3cc(C(F)(F)F)nc(S(=O)(=O)CCCC(=O)N4CCCCC4)n3)ccc2=O)cc1OC | 1.4
2 | COc1ccc(Cn2cc(-c3cc(C(F)(F)F)nc(S(C)(=O)=O)n3)ccc2=O)cc1 | 94
3 | CS(=O)(=O)c1nc(-c2cccs2)cc(C2CCC(=O)N2)n1 (centres undefined) | > 20000
4 | C#Cc1ccc(Cn2cc(-c3cc(C(F)(F)F)nc(S(C)(=O)=O)n3)ccc2=O)cc1 | 817
5 | CS(=O)(=O)c1nc(-c2ccc(=O)n(Cc3ccc(C#N)cc3)c2)cc(C(F)(F)F)n1 | 3490
6 | CS(=O)(=O)c1nc(-c2ccc(=O)n(Cc3ccccc3Cl)c2)cc(C(F)(F)F)n1 | 1140
7 | COc1ccc(Cn2cc(-c3cc(C(F)(F)F)nc(S(=O)(=O)CCCC(=O)NC45CC6CC(CC(C6)C4)C5)n3)ccc2=O)cc1OC | 0.42
8 | COc1ccc(Cn2cc(-c3cc(C(F)(F)F)nc(S(=O)(=O)CCCC(=O)N(C)C)n3)ccc2=O)cc1OC | 164
9 | CS(=O)(=O)c1nc(-c2cccc(Oc3ccccc3)c2)cc(C(F)(F)F)n1 | 8760
10 | CS(=O)(=O)c1nc(-c2ccc(=O)n(Cc3ccccc3)c2)cc(C(F)(F)F)n1 | 1160
11 | CCCOc1cccc(Cn2cc(-c3cc(C(F)(F)F)nc(S(C)(=O)=O)n3)ccc2=O)c1 | 69
12 | CS(=O)(=O)c1nc(-c2ccc(=O)n(Cc3ccc(Cl)cc3)c2)cc(C(F)(F)F)n1 | 66
13 | COCCS(=O)(=O)c1nc(-c2ccc(=O)n(Cc3ccc(OC)c(OC)c3)c2)cc(C(F)(F)F)n1 | 216
14 | CS(=O)(=O)c1nc(-c2ccc(=O)n(Cc3cccc(O)c3)c2)cc(C(F)(F)F)n1 | 1820
15 | CS(=O)(=O)c1nc(-c2ccc(=O)n(Cc3cccc(C#N)c3)c2)cc(C(F)(F)F)n1 | 4060
16 | COCCCS(=O)(=O)c1nc(-c2ccc(=O)n(Cc3ccc(OC)c(OC)c3)c2)cc(C(F)(F)F)n1 | 282
17 | CCCCCCCS(=O)(=O)c1nc(-c2ccc(=O)n(Cc3ccc(OC)c(OC)c3)c2)cc(C(F)(F)F)n1 | 253
18 | COc1cccc(Cn2cc(-c3cc(C(F)(F)F)nc(S(C)(=O)=O)n3)ccc2=O)c1 | 57
19 | CCCCCS(=O)(=O)c1nc(-c2ccc(=O)n(Cc3ccc(OC)c(OC)c3)c2)cc(C(F)(F)F)n1 | 364
20 | C#Cc1cccc(Cn2cc(-c3cc(C(F)(F)F)nc(S(C)(=O)=O)n3)ccc2=O)c1 | 4480
21 | COc1ccc(Cn2cc(-c3cc(C(F)(F)F)nc(S(=O)(=O)CCCC(=O)N4CCCC4)n3)ccc2=O)cc1OC | 27
22 | COc1ccc(Cn2cc(-c3cc(C(F)(F)F)nc(S(C)(=O)=O)n3)ccc2=O)cc1OC | 25
23 | CS(=O)(=O)c1nc(-c2ccc(=O)n(Cc3cccc(Cl)c3)c2)cc(C(F)(F)F)n1 | 257

More lines, now with the values ahead:

Row | EC50 [nM] | Compound
24 | 6640 | Cc1ccccc1-c1cc(C(F)(F)F)nc(S(C)(=O)=O)n1
25 | > 20000 | Cc1cc(-c2cccs2)nc(S(C)(=O)=O)n1
26 | 749 | CS(=O)(=O)c1nc(-c2cccs2)cc(C(F)(F)F)n1 [MLS000044645]
27 | 2200 | CS(=O)(=O)c1nc(-c2ccccc2)cc(C(F)(F)F)n1 [MLS000044644]
28 | 1140 | CCOC(=O)CCS(=O)(=O)c1nc(-c2cccs2)cc(C(F)(F)F)n1
29 | 4210 | O=S(=O)(Cc1ccc(-c2ccccc2)cc1)c1nc(-c2cccs2)cc(C(F)(F)F)n1
30 | > 20000 | COc1ccc(Cn2cc(-c3cc(C(F)(F)F)nc(S(=O)(=O)CCCC(N)=O)n3)ccc2=O)cc1OC
31 | 3520 | COC(=O)c1cccc(-c2cc(C(F)(F)F)nc(S(C)(=O)=O)n2)c1
32 | 3490 | Cc1cccc(-c2cc(C(F)(F)F)nc(S(C)(=O)=O)n2)c1
33 | > 20000 | COC(=O)c1ccc(-c2cc(C(F)(F)F)nc(S(C)(=O)=O)n2)cc1
34 | > 20000 | CS(=O)(=O)c1nc(-c2ccc(=O)[nH]c2)cc(C(F)(F)F)n1
35 | > 20000 | CS(=O)(=O)c1nc(N=[N+]=[N-])cc(-c2cccs2)n1
36 | 1590 | O=S(=O)(CCc1ccccc1)c1nc(-c2cccs2)cc(C(F)(F)F)n1
37 | 6360 | Cc1ccc(-c2cc(C(F)(F)F)nc(S(C)(=O)=O)n2)cc1
38 | 1430 | CCS(=O)(=O)c1nc(-c2cccs2)cc(C(F)(F)F)n1
39 | 110 | CCOc1cccc(Cn2cc(-c3cc(C(F)(F)F)nc(S(C)(=O)=O)n3)ccc2=O)c1
40 | > 20000 | CS(=O)(=O)c1nc(-c2cccs2)cc(-c2cccs2)n1
41 | 4000 | Cc1ccc(O)c(NC(=O)CCCS(=O)(=O)c2nc(-c3cccs3)cc(C(F)(F)F)n2)c1
42 | > 20000 | CN(C)C(=O)c1cccc(-c2cc(C(F)(F)F)nc(S(C)(=O)=O)n2)c1
43 | 7030 | COC(=O)c1ccccc1-c1cc(C(F)(F)F)nc(S(C)(=O)=O)n1

test: Inhibition of SDHB in human U2OS cells over-expressing tBid assessed as reduction in apoptosis preincubated for 1 hr followed by doxycyclin addition to induce tBid protein expression measured after 24 hrs by Cell Titer-Glo assay

Row | EC50 [nM] | Compound
44 | 0.23 | COc1ccc(Cn2cc(-c3cc(C(F)(F)F)nc(S(=O)(=O)CCCC(=O)NC45CC6CC(CC(C6)C4)C5)n3)ccc2=O)cc1OC
